Target: T1, RxPAL (phenylalanine ammonia-lyase of Rubrobacter xylanophilus) (Rubrobacter xylanophilus, UniProt Q1AV79)
T1 construct: gene Rxyl_1739; full length (540 AA), N-terminal His6-tag kept, codon-optimised synthetic gene in pBAD-HisB, expressed in E. coli TOP10, Ni-NTA purified; MIO prosthetic group formed from ASG
Experiment: UV spectrophotometry at […] nm, cinnamic acid formation
Type: biochemical
Settings: 20 mM L-phenylalanine, 0.1 M buffers pH 4.0-12, ionic strength 250 mM

T1 sequence (Q1AV79 entry or part of it): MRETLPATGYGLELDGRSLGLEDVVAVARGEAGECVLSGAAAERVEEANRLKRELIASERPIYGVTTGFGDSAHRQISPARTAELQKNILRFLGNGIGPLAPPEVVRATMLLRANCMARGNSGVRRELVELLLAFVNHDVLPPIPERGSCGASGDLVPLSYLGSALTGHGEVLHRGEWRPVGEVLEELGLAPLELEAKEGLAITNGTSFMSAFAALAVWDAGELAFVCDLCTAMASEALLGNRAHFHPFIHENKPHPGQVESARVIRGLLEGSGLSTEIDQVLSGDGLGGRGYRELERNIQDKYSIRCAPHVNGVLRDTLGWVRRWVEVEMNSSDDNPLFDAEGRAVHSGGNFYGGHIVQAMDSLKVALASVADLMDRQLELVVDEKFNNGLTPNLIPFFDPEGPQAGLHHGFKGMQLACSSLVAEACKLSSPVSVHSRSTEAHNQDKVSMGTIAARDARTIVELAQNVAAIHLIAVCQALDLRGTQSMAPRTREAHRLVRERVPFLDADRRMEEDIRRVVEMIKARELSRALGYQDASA

Compound: N[C@@H](Cc1ccccc1)C(=O)O [L-phenylalanine]
- UV spectrophotometry at 290 nm, cinnamic acid formation: Progress of ammonia elimination from L-phenylalanine was monitored by detection of (E)-cinnamic acid production
